Where two headings read alike, the source gives them in different places.
Legend:
[1] = test system: Nicotine-evoked [^3H]Dopamine Release from Superfused Rat Striatal Slices; assay: Inhibition of nicotine-evoked [^3H]dopamine overflow from superfused rat striatal slices; format: cell-based; details: nicotine 10 μM; for inhibition at 0.1 µM: analog 100 nM, superfused rat striatal slices, read-out: Inhibition Nicotine-evoked [^3H]DA release (% inhibition at 100 nM)
Protocol: The [^3H]dopamine overflow assay using superfused rat striatal slices preloaded with [^3H]dopamine was used to determine the ability of a probe concentration (100 nM) of each bis-quaternary ammonium analog to inhibited nicotine-evoked [^3H]dopamine overflow. Briefly, coronal slices of rat striata (500 μm, 6-8 mg) were obtained using a Mcllwain tissue chopper. Slices were incubated for 30 min in Krebs' buffer (in mM: 118 NaCl, 4.7 KCl, 1.2 MgCl2, 1.0 NaH2PO4, 1.3 CaCl2, 11.1 α-D-glucose, 25 NaHCO3, 0.11 L-ascorbic acid and 0.004 ethylenediaminetetraacetic acid (EDTA), pH 7.4, saturated with 95% O2/5% CO2) at 34° C. in a metabolic shaker. Slices were then incubated for an additional 30 min in fresh buffer containing 0.1 μM [^3H]dopamine. After rinsing, each slice was transferred to each one of 20 superfusion chambers, maintained at 34° C. and superfused (0.6 ml/min) with oxygenated Krebs' buffer in a Brandel Suprafusion 2500 (Biomedical Research and Development Laboratories, Inc., Gaithersburg, Md.). The buffer contained both nomifensine (10 μM), a dopamine uptake blocker, and pargyline (10 μM), a monoamine oxidase inhibitor, ensuring that [^3H]overflow primarily represented [^3H]dopamine, rather than [^3H]metabolites. Following superfusion for 60 min, two 4-min samples (2.4 ml/sample) were collected to determine basal [^3H]outflow. After collection of the second basal sample, slices from an individual rat were superfused for 40 min in the absence (0 nM; control) or presence of each bis-quaternary ammonium analog (100 nM) to determine the intrinsic activity of the analog, i.e., ability of the analog to evoke [^3H]overflow. Following 40 min of superfusion in the absence or presence of analog, nicotine (10 μM) was added to the superfusion buffer and samples were collected for an additional 40 min to determine the ability of the analog to inhibit nicotine-evoked [^3H]dopamine overflow. At least one striatal slice in each experiment was superfused for 40 min in the absence of analog, followed by superfusion with 10 μM nicotine to determine nicotine-evoked [^3H]dopamine overflow in the absence of analog (nicotine control). After collection of the superfusate samples, the slices were retrieved from the chambers and solubilized using 1 ml of TS-2 tissue solubilizer. Scintillation cocktail (4 ml) was added to the superfusate samples. The pH and volume of the solubilized tissue samples were adjusted to that of the superfusate samples. Radioactivity in the superfusate and tissue samples was determined by liquid scintillation spectroscopy (Packard model B 1600 TR Scintillation Counter, Downer's Grove, Ill.).
For individual analogs, a complete concentration response was determined using the following methodology. Rat striatal slices (500 μm thickness, 6-8 mg wet weight) were incubated for 30 minutes in Krebs buffer (118 mM NaCl, 4.7 mM KCl, 1.2 mM MgCl2, 1.0 mM NaH2PO4, 1.3 mM CaCl2, 11.1 mM glucose, 25 mM NaHCO3, 0.11 mM L-ascorbic acid, and 0.004 mM disodium EDTA; pH 7.4, and saturated with 95% O2/5% CO2) in a metabolic shaker at 34° C. Slices were rinsed with 15 mL of fresh buffer and incubated for an additional 30 minutes in fresh buffer containing 0.1 μM [^3H]dopamine (DA; 6 slices/3 mL). Subsequently, slices were rinsed with 15 mL of fresh buffer and transferred to a glass superfusion chamber. Slices were superfused (1.0 mL/min) for 60 minutes with Krebs buffer containing nomifensine (10 μM) and pargyline (10 μM) and maintained at 34° C., pH 7.4, with continual aeration (95% O2/5% CO2). Three 5-minute samples (5 mL each) were collected to determine basal outflow of [^3H]DA. The bis-quaternary analogs were added to the superfusion buffer after the collection of the third sample and remained in the buffer until 12 consecutive five minute samples were collected. Subsequently, S-(−)-nicotine (10 μM) was added to the buffer and an additional 12 consecutive five minute samples were collected. […]

[2] = biological target: T1, Rat Striatal Nicotinic Receptors ([^3H]MLA binding sites; α7) (Rattus norvegicus, UniProt Q05941); assay: Inhibition of [^3H]methyllycaconitine binding to rat brain membranes
T1 construct: Whole brain, excluding cortex and cerebellum, was homogenized in 20 vol of ice-cold buffer; from tissue; host or cells: rat brain membranes (whole brain excluding cortex and cerebellum)
Protocol: (§1) Whole brain, excluding cortex and cerebellum, was homogenized in 20 vol of ice-cold buffer, containing (in mM): 2 HEPES, 11.8 NaCl, 0.48 KCl, 0.25 CaCl2 and 0.12 MgSO4, pH 7.5. Homogenate was centrifuged (25,000 g, 15 min, 4° C.). Pellets were resuspended in 20 vol buffer and incubated at 37° C., for 10 min, cooled to 4° C. and centrifuged (25,000 g, 15 min, 4° C.). Pellets were resuspended and centrifuged using the same conditions. Final pellets were stored in assay buffer, containing (in mM): 20 HEPES, 118 NaCl, 4.8 KCl, 2.5 CaCl2, and 1.2 MgSO4, pH 7.5 at −70° C. Upon use, final pellets were resuspended in ˜20 vol assay buffer. Samples (250 μl) contained 100-140 μg of membrane protein, 3 nM [^3H]nicotine or 3 nM [^3H]methyllycaconitine, and analog (100 nM) in assay buffer containing 50 mM Tris. Control was in the absence of analog. In [^3H]nicotine and [^3H]methyllycaconitine binding assays, nonspecific binding was determined in the presence of 10 μM cytisine and 10 μM nicotine, respectively. Incubations proceeded for 60 min at room temperature using 96-well plates and were terminated by harvesting on Unifilter-96 GF/B filter plates presoaked in 0.5% polyethylenimine, using a Packard FilterMate harvester. After washing 5 times with 350 μl ice-cold assay buffer, filter plates were dried (60 min, […]), bottom-sealed, and filled with Packard's MicroScint 20 cocktail (40 μl/well). After 60 min, filter plates were top-sealed, and radioactivity determined using a Packard TopCount. Protein concentrations were determined using the Bradford dye-binding procedure bovine serum albumin as the standard.
(§2) […] Specific binding in the [^3H]NIC binding assay is calculated as the difference between the total binding of 3 nM [^3H]NIC and nonspecific binding in the presence of 10 μM cytisine. Specific binding for the [^3H]MLA binding assay is calculated as the difference between the total binding of 3 nM [^3H]MLA to the receptors alone and its nonspecific binding in the presence of 10 μM nicotine. Analog-induced inhibition of nicotine-evoked [^3H]DA release is calculated as a percent of that in the absence of the bis-quaternary ammonium analog.

[3] = biological target: T2, Rat Striatal Nicotinic Receptors ([^3H]NIC binding sites; α4β2) (Rattus norvegicus, UniProt P09483+P12390); assay: Inhibition of [^3H]nicotine binding to rat brain membranes
T2 construct: Whole brain, excluding cortex and cerebellum, was homogenized in 20 vol of ice-cold buffer; from tissue; host or cells: rat brain membranes (whole brain excluding cortex and cerebellum)
Protocol: as §1, §2

[4] = 3 nM [^3H]methyllycaconitine, nonspecific binding with 10 μM nicotine, rat brain membranes, read-out: Inhibition of [^3H]MLA Binding Ki (μM; M ± SEM)
[5] = 3 nM [^3H]nicotine, nonspecific binding with 10 μM cytisine, rat brain membranes, read-out: Inhibition of [^3H]Nicotine binding Ki (μM; M ± SEM)

T1 sequence (Q05941 23-502): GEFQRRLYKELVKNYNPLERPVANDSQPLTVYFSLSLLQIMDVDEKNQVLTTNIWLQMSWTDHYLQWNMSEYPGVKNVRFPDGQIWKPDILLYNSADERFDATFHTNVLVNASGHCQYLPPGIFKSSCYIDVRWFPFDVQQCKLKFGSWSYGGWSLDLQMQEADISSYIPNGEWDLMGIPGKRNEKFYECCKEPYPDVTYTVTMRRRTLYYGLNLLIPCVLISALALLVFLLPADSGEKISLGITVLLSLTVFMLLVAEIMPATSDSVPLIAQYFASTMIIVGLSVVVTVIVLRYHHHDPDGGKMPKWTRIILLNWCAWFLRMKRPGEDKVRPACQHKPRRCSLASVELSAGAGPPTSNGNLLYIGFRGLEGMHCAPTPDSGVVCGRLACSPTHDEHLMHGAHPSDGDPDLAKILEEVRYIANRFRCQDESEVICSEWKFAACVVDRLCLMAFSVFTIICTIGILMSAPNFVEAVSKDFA
T2 sequence (P09483 31-630): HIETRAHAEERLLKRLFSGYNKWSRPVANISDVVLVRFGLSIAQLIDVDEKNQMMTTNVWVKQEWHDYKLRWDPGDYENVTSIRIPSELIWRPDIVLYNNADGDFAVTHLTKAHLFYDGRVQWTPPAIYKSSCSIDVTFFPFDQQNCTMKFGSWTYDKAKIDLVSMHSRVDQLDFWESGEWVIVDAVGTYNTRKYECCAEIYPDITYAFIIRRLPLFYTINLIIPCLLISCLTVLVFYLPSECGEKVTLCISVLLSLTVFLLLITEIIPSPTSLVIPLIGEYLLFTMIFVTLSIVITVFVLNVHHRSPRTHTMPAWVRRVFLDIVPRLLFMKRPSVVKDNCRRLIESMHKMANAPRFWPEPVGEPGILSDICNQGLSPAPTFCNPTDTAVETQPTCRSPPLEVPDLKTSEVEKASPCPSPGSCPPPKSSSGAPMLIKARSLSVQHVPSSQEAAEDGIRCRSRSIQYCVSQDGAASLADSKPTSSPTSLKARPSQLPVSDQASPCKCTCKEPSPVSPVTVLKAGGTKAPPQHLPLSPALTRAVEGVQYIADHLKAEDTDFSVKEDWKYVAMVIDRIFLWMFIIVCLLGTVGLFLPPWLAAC
T2 sequence (P12390 25-500): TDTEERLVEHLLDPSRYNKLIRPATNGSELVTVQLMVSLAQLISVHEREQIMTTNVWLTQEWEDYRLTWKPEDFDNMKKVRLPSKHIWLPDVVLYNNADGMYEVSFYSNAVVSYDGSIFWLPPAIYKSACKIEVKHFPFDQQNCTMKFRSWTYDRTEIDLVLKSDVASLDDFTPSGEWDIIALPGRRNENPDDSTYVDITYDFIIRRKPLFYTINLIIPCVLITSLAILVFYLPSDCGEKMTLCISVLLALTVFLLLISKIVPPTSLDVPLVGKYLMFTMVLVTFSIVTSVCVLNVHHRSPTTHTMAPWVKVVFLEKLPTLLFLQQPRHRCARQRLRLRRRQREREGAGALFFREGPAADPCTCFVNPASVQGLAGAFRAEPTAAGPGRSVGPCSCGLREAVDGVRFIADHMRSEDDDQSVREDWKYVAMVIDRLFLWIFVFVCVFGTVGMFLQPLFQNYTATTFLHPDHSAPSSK

SMILES	inhibition at 0.1 µM [1]	Ki [2, 4]	Ki [3, 5]	Ki [2]	Ki [3]	concentration dependent inhibition of the effect of nicotine to evoke [^3H]dopamine release (FIG. 1) ([1]; full concentration response, rat striatal slices)
Cc1ccc[n+](CCCc2ccc[n+](C)c2)c1 [GZ-529A]	43%	> 100 µM	> 100 µM			
C[n+]1cccc(CCC[n+]2ccccc2)c1 [GZ-530B]	9%			> 100 µM	23.4 ± 3.94 µM	
CN1CCC[C@@H]1c1ccc[n+](CCCc2ccc[n+](C)c2)c1 [GZ-530A]	43%			> 100 µM	6.62 ± 1.14 µM	
C[n+]1ccccc1CCCc1cccc[n+]1C [GZ-528A]	49%			> 100 µM	8.17 ± 0.17 µM	
C[n+]1cccc(CCCc2ccc[n+](C)c2)c1 [GZ-527A]	32%	> 100 µM	8.2 ± 1.78 µM			
C[n+]1ccc(CCCc2cc[n+](C)cc2)cc1 [GZ-527B]	67%			> 100 µM	7.88 ± 1.68 µM	concentration dependent inhibition
Cc1cc(CCCc2cc(C)c[n+](C)c2)c[n+](C)c1 [GZ-528B]	30%	> 100 µM	> 100 µM			
Cc1cc(C)c[n+](CCCc2ccc[n+](C)c2)c1 [GZ-529B]	25%			> 100 µM	> 100 µM	

From patent US9540327B2, “Bis-quaternary ammonium salts and methods for modulating neuronal nicotinic acetylcholine receptors” (University of Kentucky Research Foundation, priority 2006, dated 2017)
